The results in this text go back to patent US11149031B2, “Substituted N-(3-fluoropropyl)-pyrrolidine compounds, processes for their preparation and therapeutic uses thereof” (SANOFI, priority 2016, dated 2021).

What is called IC50 is the concentration at which inhibition is half-maximal.

The target of test [1] is His6-ERα298-554 WT (ERα ligand-binding domain) (Homo sapiens (Human), UniProt P03372). As to the kind of experiment: Test A: biochemical antagonist activity, LanthaScreen TR-FRET ERα coactivator assay, WT. The note with it: protocol with 3 nM estradiol; read-out: Antagonism WT IC50. The method, then:
(§1) Test A: Biochemical Antagonist Activity on Wild Type (WT) and Mutants
(§2) Estrogen Receptors Test A involves measuring the in vitro antagonist activity of the compounds of the invention on estrogen receptors.
(§3) The measurements of the antagonist activities were made using an estrogen receptor coactivator assay as described hereunder.
(§4) Antagonistic potency of compounds was evaluated using LanthaScreen® TR-FRET ERα Coactivator Assay (ThermoFisher) with modifications. […] The assay works in a homogeneous mix-and-read format. In a typical experiment, a 4 μL mixture of 0.5 nM His6-ERα298-554, 0.5 nM Tb-labeled His6 antibody, 250 nM PGC1a peptide, and 3 nM estradiol (or 10 nM estradiol) in 100 mM potassium phosphate, pH 7.4, 0.01% Tween-20, 0.02% NaN3, 5 mM DTT, was added to 40 nL test compound in DMSO and incubated overnight at room temperature. The TR-FRET 520:495 nm emission ratio was calculated and used to determine the IC50 value from a dose response curve fit to the 4-parameter logistic equation.

The target of the next test is ERα in MCF7 cells (Homo sapiens (Human), UniProt P03372). As to the kind of experiment: Test C: estrogen receptor degradation activity, ERα in cell western assay in MCF7 cells. In kind it is cell-based. The following applies: for DC50: 4 hours post compound addition, ERα in cell western, read-out: Degradation IC50; for % Degradation at 3 μM: 4 hours, relative to fulvestrant. The protocol:
Test C: Estrogen Receptor Degradation Activity
Test C involves measuring the in vitro degradation activity of the compounds of the invention.
The measurements of the degradation activities were made using abreast cancer cell ERα in cell western assay as described hereunder.
MCF7 cells (ATCC) were seeded in 384 wells microplate (collagen coated) at concentration of >9990 cells/30 μL per well in red phenol free MEM alpha medium (invitrogen) containing 5% charcoal dextran striped FBS. The following day, 9 points serial 1:5 dilution of each compound were added to the cells in 2.5 μL at final concentrations ranging from 3-0.000018 μM or 0.1 μM for fulvestrant (using as positive control). At 4 hours post compounds addition the cells were fixed by adding 25 μL of formalin (final concentration 5% formalin containing 0.1% triton) for 10 minutes at room temperature and then washed twice with PBS. Then, 50 μL of LI-COR blocking buffer containing 0.1% Triton was added to plate for 30 minutes at room temperature. LI-COR blocking buffer was removed and cells were incubated overnight at cold room with 50 μL anti-ER rabbit monoclonal antibody (Thermo scientific MA1-39540) diluted at 1:>999 in LI-COR blocking buffer containing 0.1% tween-20. Wells which were treated with blocking but no antibody were used as background control. Wells were washed twice with PBS (0.1% tween-20) and incubated at 37° C. for 60 minutes in LI-COR (0.1% tween-20) containing goat anti-rabbit antibody Alexa 488 (1:>999) and Syto-64 a DNA dye (2 μM final concentration). Cells were then washed 3 times in PBS and scanned in ACUMEN explorer (TTP-Labtech). Integrated intensities in the green fluorescence and red fluorescence were measured to determine the levels of ERα and DNA respectively.

The target in test [2] is His6-ERα298-554 D538G mutant (ERα ligand-binding domain) (Homo sapiens (Human), UniProt P03372, D538G). The experiment in a line: Test A: biochemical antagonist activity, LanthaScreen TR-FRET ERα coactivator assay, D538G mutant. The note with it: protocol with 3 nM estradiol; read-out: Antagonism D538G IC50. The method, then:
as §1, §2, §3, §4

Test [3] deals with His6-ERα298-554 Y537S mutant (ERα ligand-binding domain) (Homo sapiens (Human), UniProt P03372, Y537S). As to the kind of experiment: Test A: biochemical antagonist activity, LanthaScreen TR-FRET ERα coactivator assay, Y537S mutant. The following applies: protocol with 3 nM estradiol; read-out: Antagonism Y537S IC50. The method, then: as §1, §2, §3, §4
Sequence of His6-ERα298-554 Y537S mutant (ERα ligand-binding domain) (P03372 298-554 Y537S): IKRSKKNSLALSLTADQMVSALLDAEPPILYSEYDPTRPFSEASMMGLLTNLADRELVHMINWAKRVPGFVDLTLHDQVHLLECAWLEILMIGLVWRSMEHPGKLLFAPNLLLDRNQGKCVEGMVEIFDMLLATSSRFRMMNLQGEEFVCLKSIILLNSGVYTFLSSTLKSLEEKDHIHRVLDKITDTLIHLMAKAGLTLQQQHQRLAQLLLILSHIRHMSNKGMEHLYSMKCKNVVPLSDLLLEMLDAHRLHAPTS
(In TR-FRET formats the signal depends on donor and acceptor labels being close together.)

Sequence of His6-ERα298-554 D538G mutant (ERα ligand-binding domain) (P03372 298-554 D538G): as the sequence (P03372 298-554 Y537S) above, with S240Y, D241G counted along it
Sequence of ERα in MCF7 cells (P03372 whole entry): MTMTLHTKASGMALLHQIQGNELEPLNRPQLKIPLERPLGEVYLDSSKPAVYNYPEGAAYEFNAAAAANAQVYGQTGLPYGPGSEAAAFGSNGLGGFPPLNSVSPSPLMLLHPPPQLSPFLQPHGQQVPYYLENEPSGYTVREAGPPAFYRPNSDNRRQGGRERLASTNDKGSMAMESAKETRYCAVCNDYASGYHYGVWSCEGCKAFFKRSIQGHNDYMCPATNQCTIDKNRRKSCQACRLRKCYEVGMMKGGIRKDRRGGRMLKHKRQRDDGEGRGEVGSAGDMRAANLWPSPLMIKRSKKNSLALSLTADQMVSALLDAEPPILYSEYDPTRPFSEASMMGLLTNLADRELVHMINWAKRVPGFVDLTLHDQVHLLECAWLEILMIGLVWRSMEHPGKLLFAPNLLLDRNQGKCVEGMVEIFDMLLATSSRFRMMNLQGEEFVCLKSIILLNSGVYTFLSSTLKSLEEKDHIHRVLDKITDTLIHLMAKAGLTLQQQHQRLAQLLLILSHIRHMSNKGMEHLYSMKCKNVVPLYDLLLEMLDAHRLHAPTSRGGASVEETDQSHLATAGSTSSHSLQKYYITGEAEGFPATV
Sequence of His6-ERα298-554 WT (ERα ligand-binding domain) (P03372 298-554): as the sequence (P03372 298-554 Y537S) above, with S240Y counted along it

For `Oc1ccc2c(c1)SCC(c1ccc(Cl)cc1Cl)=C2c1ccc(O[C@H]2CCN(CCCF)C2)cc1` [Example 21, 3-(2,4-dichlorophenyl)-4-[4-[(3S)-1-(3-fluoropropyl)pyrrolidin-3-yl]oxyphenyl]-2H-thiochromen-7-ol], the IC50 in test [1] amounted to 9 nM; in test [2] it was 47 nM; in test [3], 19 nM. Also, the DC50 on ERα in MCF7 cells is 3 nM. The “% Degradation at 3 μM” value at ERα in MCF7 cells was 92%.

In the case of `Oc1ccc2c(c1)SCC(c1ccc(F)cc1Cl)=C2c1ccc(O[C@H]2CCN(CCCF)C2)cc1` [Example 22, 3-(2-chloro-4-fluoro-phenyl)-4-[4-[(3S)-1-(3-fluoropropyl)pyrrolidin-3-yl]oxyphenyl]-2H-thiochromen-7-ol], the results for the IC50 in test [1], in test [2] and in test [3] were 6 nM, 27 nM and 9 nM, respectively. Further, at ERα in MCF7 cells, the DC50 came out at 1 nM. At ERα in MCF7 cells, the “% Degradation at 3 μM” value worked out at 95%.

For the compound `Oc1cccc(C2=C(c3ccc(O[C@H]4CCN(CCCF)C4)cc3)c3ccc(O)cc3OCC2)c1` [Example 91, 5-[4-[(3S)-1-(3-fluoropropyl)pyrrolidin-3-yl]oxyphenyl]-4-(3-hydroxyphenyl)-2,3-dihydro-1-benzoxepin-8-ol], the values for the 50% inhibitory concentration (IC50) in test [1], in test [2] and in test [3] were 2 nM, 10 nM and 6 nM, respectively. Also, the DC50 on ERα in MCF7 cells came out at 0.4 nM. Further, the “% Degradation at 3 μM” value on ERα in MCF7 cells is listed as 91%.

Turning to `Oc1ccc2c(c1)OCCC(c1ccc(F)cc1Cl)=C2c1ccc(O[C@H]2CCN(CCCF)C2)cc1` [Example 92, 4-(2-chloro-4-fluoro-phenyl)-5-[4-[(3S)-1-(3-fluoropropyl)pyrrolidin-3-yl]oxyphenyl]-2,3-dihydro-1-benzoxepin-8-ol], the IC50 came out at 7 nM in test [1], 59 nM in test [2] and 22 nM in test [3]. The DC50 at ERα in MCF7 cells was 0.5 nM. Also, on ERα in MCF7 cells, the “% Degradation at 3 μM” value amounted to 96%.

As to `Oc1ccc2c(c1)OCCC(c1ccc3[nH]ccc3c1)=C2c1ccc(O[C@H]2CCN(CCCF)C2)cc1` [Example 93, 5-[4-[(3S)-1-(3-fluoropropyl)pyrrolidin-3-yl]oxyphenyl]-4-(1H-indol-5-yl)-2,3-dihydro-1-benzoxepin-8-ol], the IC50 in test [1] stood at 8 nM; in test [2], 59 nM; in test [3], 26 nM. Also, the DC50 on ERα in MCF7 cells turned out to be 0.4 nM. The “% Degradation at 3 μM” value on ERα in MCF7 cells was 87%.

Regarding `Oc1ccc(C2=C(c3ccc(O[C@H]4CCN(CCCF)C4)cc3)c3ccc(O)cc3OCC2)c(F)c1` [Example 94, 4-(2-fluoro-4-hydroxy-phenyl)-5-[4-[(3S)-1-(3-fluoropropyl)pyrrolidin-3-yl]oxyphenyl]-2,3-dihydro-1-benzoxepin-8-ol], the IC50 in test [1] worked out at 2 nM; in test [2], 10 nM; in test [3], 6 nM. At ERα in MCF7 cells, the DC50 was determined as 0.2 nM. The “% Degradation at 3 μM” value on ERα in MCF7 cells was 87%.

Consider `Oc1ccc2c(c1)OCCC(c1cccc(F)c1Cl)=C2c1ccc(O[C@H]2CCN(CCCF)C2)cc1` [Example 95, 4-(2-chloro-3-fluoro-phenyl)-5-[4-[(3S)-1-(3-fluoropropyl)pyrrolidin-3-yl]oxyphenyl]-2,3-dihydro-1-benzoxepin-8-ol], for which the IC50 was 6 nM in test [1], 43 nM in test [2] and 20 nM in test [3]. Besides, the DC50 on ERα in MCF7 cells was determined as 0.2 nM. For the same compound, the “% Degradation at 3 μM” value at ERα in MCF7 cells stood at 93%.

With `Oc1ccc2c(c1)OCCC(c1ccc(Cl)c(F)c1)=C2c1ccc(O[C@H]2CCN(CCCF)C2)cc1` [Example 97, 4-(4-chloro-3-fluoro-phenyl)-5-[4-[(3S)-1-(3-fluoropropyl)pyrrolidin-3-yl]oxyphenyl]-2,3-dihydro-1-benzoxepin-8-ol], the IC50 in test [1] came to 50 nM; in test [2], 358 nM; in test [3], 18 nM. The DC50 at ERα in MCF7 cells was found to be 0.2 nM. Further, the “% Degradation at 3 μM” value at ERα in MCF7 cells stood at 94%.

Consider `Cc1cc(C2=C(c3ccc(O[C@H]4CCN(CCCF)C4)cc3)c3ccc(O)cc3OCC2)ccc1Cl` [Example 99, 4-(4-chloro-3-methyl-phenyl)-5-[4-[(3S)-1-(3-fluoropropyl)pyrrolidin-3-yl]oxyphenyl]-2,3-dihydro-1-benzoxepin-8-ol], for which the IC50 in test [1] was 5 nM; in test [2] it was 36 nM; in test [3] it was 25 nM. Besides, the DC50 on ERα in MCF7 cells amounted to 0.7 nM. In addition, the “% Degradation at 3 μM” value at ERα in MCF7 cells is 89%.

Consider `Cc1cc(F)ccc1C1=C(c2ccc(O[C@H]3CCN(CCCF)C3)cc2)c2ccc(O)cc2OCC1` [Example 100, 4-(4-fluoro-2-methyl-phenyl)-5-[4-[(3S)-1-(3-fluoropropyl)pyrrolidin-3-yl]oxyphenyl]-2,3-dihydro-1-benzoxepin-8-ol], for which the results for the IC50 in test [1], in test [2] and in test [3] were 7 nM, 54 nM and 25 nM, respectively. Also, the DC50 on ERα in MCF7 cells was 0.2 nM. Besides, the “% Degradation at 3 μM” value at ERα in MCF7 cells turned out to be 88%.

For `Cc1c(Cl)cccc1C1=C(c2ccc(O[C@H]3CCN(CCCF)C3)cc2)c2ccc(O)cc2OCC1` [Example 101, 4-(3-chloro-2-methyl-phenyl)-5-[4-[(3S)-1-(3-fluoropropyl)pyrrolidin-3-yl]oxyphenyl]-2,3-dihydro-1-benzoxepin-8-ol], the IC50 in test [1] came to 6 nM; in test [2], 50 nM; in test [3] it was 25 nM. Further, at ERα in MCF7 cells, the DC50 is 0.6 nM. The “% Degradation at 3 μM” value at ERα in MCF7 cells stood at 92%.

On to `Oc1ccc2c(c1)OCCC(c1ccc3c(c1)CCN3)=C2c1ccc(O[C@H]2CCN(CCCF)C2)cc1` [Example 104, 5-[4-[(3S)-1-(3-fluoropropyl)pyrrolidin-3-yl]oxyphenyl]-4-indolin-5-yl-2,3-dihydro-1-benzoxepin-8-ol], for which the IC50 is 12 nM in test [1], 54 nM in test [2] and 23 nM in test [3]. In addition, the DC50 on ERα in MCF7 cells came out at 0.2 nM. Besides, on ERα in MCF7 cells, the “% Degradation at 3 μM” value is given as 88%.

Turning to `Cc1ccc(C2=C(c3ccc(O[C@H]4CCN(CCCF)C4)cc3)c3ccc(O)c(Cl)c3OCC2)c(F)c1` [Example 108, 9-chloro-4-(2-fluoro-4-methyl-phenyl)-5-[4-[(3S)-1-(3-fluoropropyl)pyrrolidin-3-yl]oxyphenyl]-2,3-dihydro-1-benzoxepin-8-ol], the IC50 in test [1] came to 30 nM; in test [2], 221 nM; in test [3], 129 nM. For the same compound, at ERα in MCF7 cells, the DC50 is 3 nM. In addition, at ERα in MCF7 cells, the “% Degradation at 3 μM” value was 86%.

For `Cc1c(Cl)cccc1C1=C(c2ccc(O[C@H]3CCN(CCCF)C3)cc2)c2ccc(O)c(Cl)c2OCC1` [Example 109, 9-chloro-4-(3-chloro-2-methyl-phenyl)-5-[4-[(3S)-1-(3-fluoropropyl)pyrrolidin-3-yl]oxyphenyl]-2,3-dihydro-1-benzoxepin-8-ol], the half-inhibitory concentration (IC50) stood at 29 nM in test [1], 215 nM in test [2] and 150 nM in test [3]. The DC50 at ERα in MCF7 cells was 1 nM. The “% Degradation at 3 μM” value on ERα in MCF7 cells is 90%.

With `Cc1ccc(C2=C(c3ccc(O[C@H]4CCN(CCCF)C4)cc3)c3ccc(O)c(C)c3OCC2)c(F)c1` [Example 111, 4-(2-fluoro-4-methyl-phenyl)-5-[4-[(3S)-1-(3-fluoropropyl)pyrrolidin-3-yl]oxyphenyl]-9-methyl-2,3-dihydro-1-benzoxepin-8-ol], the IC50 in test [1] is 91 nM; in test [2], 822 nM; in test [3] it was 407 nM. On ERα in MCF7 cells, the DC50 turned out to be 6 nM. Moreover, the “% Degradation at 3 μM” value at ERα in MCF7 cells is recorded as 86%.

As for `Cc1c(Cl)cccc1C1=C(c2ccc(O[C@H]3CCN(CCCF)C3)cc2)c2ccc(O)c(C)c2OCC1` [Example 112, 4-(3-chloro-2-methyl-phenyl)-5-[4-[(3S)-1-(3-fluoropropyl)pyrrolidin-3-yl]oxyphenyl]-9-methyl-2,3-dihydro-1-benzoxepin-8-ol], the IC50 in test [1] was found to be 91 nM; in test [2] it was 838 nM; in test [3], 543 nM. The DC50 at ERα in MCF7 cells was 4 nM. The “% Degradation at 3 μM” value at ERα in MCF7 cells is 87%.
